The record followed here is patent US8431715B2, “Thiazole compound (as PPARδ) ligand and pharmaceutical, cosmetic and health food comprised thereof” (Seoul National University Industry Foundation, priority 2007, dated 2013).

The target of one series is T1, PPARα (Homo sapiens, UniProt Q07869).
T1 construct: Full length PPARs plasmid DNA, reporter DNA confirming PPARs activity owing to its luciferase activity; expressed in transfected cells; host or cells: CV-1 cells
T1 sequence (Q07869 1-468): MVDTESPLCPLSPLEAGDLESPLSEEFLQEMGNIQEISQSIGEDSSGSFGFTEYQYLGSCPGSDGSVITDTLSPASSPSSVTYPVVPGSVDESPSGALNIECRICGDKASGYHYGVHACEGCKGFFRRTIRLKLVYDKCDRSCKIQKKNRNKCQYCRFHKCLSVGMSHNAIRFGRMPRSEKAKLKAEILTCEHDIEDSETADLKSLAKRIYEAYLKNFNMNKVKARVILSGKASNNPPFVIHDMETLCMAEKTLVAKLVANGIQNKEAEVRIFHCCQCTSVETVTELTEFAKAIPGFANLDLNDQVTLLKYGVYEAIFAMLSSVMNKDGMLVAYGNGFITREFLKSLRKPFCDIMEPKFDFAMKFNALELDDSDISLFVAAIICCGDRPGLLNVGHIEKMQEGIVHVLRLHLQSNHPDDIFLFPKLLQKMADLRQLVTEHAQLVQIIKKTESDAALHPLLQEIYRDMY
Briefly: Transfection assay (luciferase reporter) in CV-1 cells, PPARα. The class given is cell-based. The settings on record: 24 hours treatment. The protocol: (§1) The PPARδ activities of the R-form compound represented by formula 1 of the present invention and the S-form compound represented by formula 2 were measured by transfection assay. In addition, the selectivity to PPAR subtypes, PPARα and PPARγ, was examined. Cytotoxicity was tested by MTT assay and in vivo activity and toxicity was investigated by animal experiment using mice.
(§2) CV-1 cells were used in this assay. The cells were inoculated in a 96-well plate containing DMEM supplemented with 10% FBS, DBS (delipidated) and 1% penicillin/streptomycin and cultured in a 37 °C, 5% CO2 incubator. The experiment was performed according to the steps of inoculation, transfection, sample treatment and confirmation. Particularly, CV-1 cells were inoculated in a 96 well-plate (5000 cells/well), followed by transfection 24 hours later. Full length PPARs plasmid DNA, reporter DNA confirming PPARs activity owing to its luciferase activity, β-galactosidase DNA providing information on transfection efficiency, and transfection reagent were used for the transfection. The compounds of formula 1 and formula 2 were dissolved in dimethylsulfoxide (DMSO), which were treated to the cells via media at different concentrations. […] Luciferase activity and β-galactosidaseactivity were measured with Luminometer and a microplate reader. […] A graph was made with those values and EC50 was calculated.
Background: A reporter such as luciferase makes a cellular process visible.

Another series deals with T2, PPARγ (Homo sapiens, UniProt P37231).
T2 construct: Full length PPARs plasmid DNA, reporter DNA confirming PPARs activity owing to its luciferase activity; expressed in transfected cells; host or cells: CV-1 cells
T2 sequence (P37231 1-505): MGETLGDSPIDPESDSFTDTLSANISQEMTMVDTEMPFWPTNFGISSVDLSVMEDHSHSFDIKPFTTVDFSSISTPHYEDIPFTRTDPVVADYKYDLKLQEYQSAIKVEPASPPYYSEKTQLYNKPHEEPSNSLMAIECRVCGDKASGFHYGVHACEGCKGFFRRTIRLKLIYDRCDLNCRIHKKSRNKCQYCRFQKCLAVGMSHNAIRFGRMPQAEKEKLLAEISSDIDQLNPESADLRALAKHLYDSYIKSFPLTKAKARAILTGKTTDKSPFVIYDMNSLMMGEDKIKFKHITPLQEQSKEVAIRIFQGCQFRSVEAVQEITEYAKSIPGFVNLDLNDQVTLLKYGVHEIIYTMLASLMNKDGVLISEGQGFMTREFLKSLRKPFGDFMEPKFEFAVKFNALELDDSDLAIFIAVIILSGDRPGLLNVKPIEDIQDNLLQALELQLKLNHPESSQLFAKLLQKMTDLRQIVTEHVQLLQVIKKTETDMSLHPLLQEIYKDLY
Briefly: Transfection assay (luciferase reporter) in CV-1 cells, PPARγ. The settings on record: 24 hours treatment. Type of series: cell-based. The protocol:
as §1, §2

In another series the test system is ICR mice. Briefly: Acute toxicity test. The class given is in vivo. To be noted: oral, up to 2000 mg/kg, 14 days. As for the experimental part: (§3) Acute toxicity and reproductive toxicity tests were performed using mice to evaluate the toxicity of the compound of the present invention. The compound of formula 1 was orally administered to ICR mice at 6 weeks at the dosage of 50 mg/kg, 300 mg/kg and 2000 mg/kg, followed by observation on toxicity for 14 days. […] The result of reproductive toxicity test using C57BL/6 mice was also consistent with the above, which is no toxicity caused by the compound of formula 1 was observed. After oral-administration of the compound to the pregnant female mice, weight gain and growth speed of fetus were investigated.

In series [1] the test system is C57BL/6 mice. Briefly: Reproductive toxicity test. The class given is in vivo. As for the experimental part:
as §3

The subject of series [2] is C57BL/6 mice. Nature of the series: Obesity inhibitory effect, high-fat feed. Type of series: in vivo. To be noted: 10 mg/Kg/day oral, 35% fat feed for 35 days; vehicle 58.9%. The protocol: An animal test using mice was performed to confirm the in vivo effect of the compound of the present invention. C57BL/6 (SLC Co.) mice at 14 weeks were used. To induce obesity, feeds containing 35% fat were given.

The subject of series [3] is C57BL/6 mice. Nature of the series: Hyperlipidemia improving effect, blood HDL level. The class given is in vivo. To be noted: 10 mg/kg/day oral, high fat feeds, 6 weeks, serum. As for the experimental part:
In vivo animal test using C57BL/6 (SLC Co.) mice at 6 weeks was performed to confirm the hyperlipidemia improving effect of the compound of the present invention. […] 6 weeks later, blood was taken from orbital veins. Serum was separated and blood HDL level was measured by biochemical method.

The next series deals with mice. Nature of the series: Morris water maze test, treatment in pregnancy and lactation. Type of series: in vivo. To be noted: 10 mg/kg oral to pregnant mice, control 24.2 sec. The protocol: An animal test was performed to investigate the therapeutic effect of the compound of the present invention on dementia and Parkinson's disease based on the memory improving effect thereof. To confirm the effect of the compound of the present invention in the period of brain development, the compound was orally administered to pregnant mice at the concentration of 10 mg/kg in the periods of pregnancy and lactation. Morris water maze test was performed to detect any changes of the brain functions of the treatment group and the control group.

Series [4] concerns C57BL/6 mice. Briefly: Morris water maze test, LPS brain disease animal model. The class given is in vivo. As for the experimental part:
The therapeutic effect of the compound of the present invention on dementia and Parkinson's disease based on the memory improving effect thereof was investigated using brain disease animal model (C57BL/6 mice at 10 weeks). First, LPS was injected into the mouse brain to construct brain disease animal model. The mice were divided into four groups according to the administration and exercise. The exercise was performed with treadmill at the speed of 2 meter/min for the first 5 minutes, at 5 meter/min for 5 minutes, at 8 meter/min for 5 minutes and at 20 meter/min for the last 5 minutes. At the finish, Morris water maze test was performed. As a result, the therapeutic effect of the compound of formula 1 of the present invention on dementia and Parkinson's disease via memory enhancement by the compound and exercise was confirmed in the brain disease animal model.

Regarding `Cc1cc(S[C@H](Cc2ccccc2)c2sc(-c3ccc(C(F)(F)F)cc3)nc2C)ccc1OCC(=O)O` (racemic) [formula 1], the “EC50 PPARα” value at PPARα is reported as “ia”. In addition, on PPARγ, the “EC50 PPARγ” value is “ia”. Besides, the “changes on weight and feed taking” value in the series with ICR mice is listed as “no significant changes”. In the series with C57BL/6 mice [1] (mouse, in vivo, po), the “bone development and disease related matters” value is listed as “no changes”; the “weight gain and growth speed of fetus” value is “no significant difference”. The reproductive toxicity result with C57BL/6 mice [1] (oral, pregnant female mice) is given as “no toxicity”. In the series with C57BL/6 mice [2], this compound registered a weight increase of 23.1%. In addition, the “HDL level increase compared with the control” value in the series with C57BL/6 mice [3] came out at 44.6%. In addition, the “average time spent to find the platform” value in the series on mice came out at 6.8 s. Besides, the “Results of water maze test” value in the series with C57BL/6 mice [4] (Exercise (O), control 29 seconds) came to 13 s. Besides, the “Results of water maze test” value with C57BL/6 mice [4] (Exercise (X), control 36 seconds) came to 25 s.
